# Values quoted from earlier work, collected in patent US6441041B1, “(-)-hydroxycitric acid for the prevention of osteoporosis” (priority 2001, dated 2002).
# Key:
# [1] = test system: female Zucker obese (Fa/fa) rats; conditions: obese animals
# [2] = test system: female Zucker lean (Fa/−) rats; conditions: lean animals
compound,measurement,setting,value
"O=C([O-])CC(O)(C(=O)[O-])C(O)C(=O)[O-].[Na+].[Na+].[Na+] (stereo not drawn) [Tri-NaHCA, trisodium (−)-hydroxycitrate]",Carcass protein and ash/mineral content in comparison with control,[1],increased carcass protein and ash/mineral content
same,Carcass protein and ash/mineral content in comparison with control,[2],increased carcass protein and ash/mineral content
